The text below walks through data of article PMC3072031 (Analytical chemistry, 2010).

One assay deals with detection conjugate. Format: binding. Particulars: deduced from equation (1).
Another assay has as its target Aβ(1–40) mAb. Particulars: reported value; ref [41]; cited from earlier work.

On to “Aβ(1–42): 42-residue-long amyloid-β peptide, purchased from American Peptide Inc.; endogenous peptide in human CSF samples”, for which the “KD deduced from Langmuir isotherm, in words” value at detection conjugate was “nanomolar level”. Consider “Aβ(1–40): amyloid-β peptide, purchased from American Peptide Inc.; endogenous peptide in human CSF samples”, for which, on detection conjugate, the “KD deduced from Langmuir isotherm, in words” value is on record as “nanomolar level”. Further, the “KD between the Aβ(1–40) mAb and Aβ(1–40), in words” value at Aβ(1–40) mAb is reported as “nanomolar level”.
